ChEMBL document CHEMBL3272271, “Folate antagonists. 13. 2,4-Diamino-6-](alpha,alpha,alpha-trifluoro-m-tolyl)thio]quinazoline and related 2,4-diamino-6-[(phenyl- and naphthyl)thio]quinazolines, a unique class of antimetabolites with extraordinary antimalarial and antibacterial effects” (J Med Chem, 1978)
In brackets after ≈: the same amount, converted by molar mass. Activity calls are given as the source filed them. The calls are words filed in the database; no cut-off is given here.

System: Plasmodium berghei
Test: Antimalarial activity against trophozoite-induced Plasmodium berghei infected in mouse assessed as daily dose required to suppression of 90% parasite infection administered with diet for 6 days
Assay type: functional
Details: not given

Structure (SMILES) | SD90 [mg/kg/day]
COc1cc(Cc2cnc(N)nc2N)cc(OC)c1OC [TRIMETHOPRIM] | 120

System: Plasmodium berghei
Test: Antimalarial activity against Plasmodium berghei infected in mouse assessed as disease cure from parasite infection at 80 mg/kg, sc administered 72 hrs after infection
Assay type: functional, organism-based
Set-up: dose 80 mg/kg
Details: not given

Structure (SMILES) | Activity
CN(Cc1ccc(Cl)c(Cl)c1)c1ccc2nc(N)nc(N)c2c1 | Active
Nc1nc(N)c2c(Cl)c(Sc3cccc(C(F)(F)F)c3)ccc2n1 | Active
CC(=O)Nc1ccc(Sc2ccc3nc(N)nc(N)c3c2)cc1 | Active
Nc1nc(N)c2cc(Sc3ccc(-c4ccccc4)cc3)ccc2n1 | Active

System: Plasmodium berghei
Test: Antimalarial activity against Plasmodium berghei infected in mouse assessed as disease cure from parasite infection at 40 mg/kg, sc administered 72 hrs after infection
Assay type: functional, organism-based
Set-up: dose 40 mg/kg
Details: not given

Structure (SMILES) | Activity
CN(Cc1ccc(Cl)c(Cl)c1)c1ccc2nc(N)nc(N)c2c1 | Active
Nc1nc(N)c2c(Cl)c(Sc3cccc(C(F)(F)F)c3)ccc2n1 | Active

System: Plasmodium berghei
Test: Antimalarial activity against Plasmodium berghei infected in mouse assessed as disease cure from parasite infection at 640 mg/kg, sc administered 72 hrs after infection
Assay type: functional, organism-based
Set-up: dose 640 mg/kg
Details: not given

Structure (SMILES) | Activity
CN(Cc1ccc(Cl)c(Cl)c1)c1ccc2nc(N)nc(N)c2c1 | Active
Nc1nc(N)c2c(Cl)c(Sc3cccc(C(F)(F)F)c3)ccc2n1 | Active
CC(=O)Nc1ccc(Sc2ccc3nc(N)nc(N)c3c2)cc1 | Active
Nc1nc(N)c2cc(Sc3cc(Cl)cc(Cl)c3)ccc2n1 | Active

System: Pseudomonas aeruginosa
Test: Antibacterial activity against Pseudomonas aeruginosa 28 by gradient plate test
Assay type: functional
Details: not given

Structure (SMILES) | MIC [µg/mL]
Nc1nc(N)c2c(Cl)c(Sc3cccc(C(F)(F)F)c3)ccc2n1 | > 25
COc1cc(Cc2cnc(N)nc2N)cc(OC)c1OC [TRIMETHOPRIM] | > 25
CC(=O)Nc1ccc(Sc2ccc3nc(N)nc(N)c3c2)cc1 | > 25
Nc1nc(N)c2cc(Sc3cc(Cl)cc(Cl)c3)ccc2n1 | > 25

System: Plasmodium gallinaceum
Test: Antimalarial activity against sporozoite-induced Plasmodium gallinaceum infected in white leghorn chicken assessed as disease cure from parasite infection at 80 mg/kg, sc administered 72 hrs after infection
Assay type: functional, organism-based
Set-up: dose 80 mg/kg
Details: not given

Structure (SMILES) | Activity
Nc1nc(N)c2c(Cl)c(Sc3cccc(C(F)(F)F)c3)ccc2n1 | Active

System: Plasmodium gallinaceum
Test: Antimalarial activity against trophozoite-induced Plasmodium gallinaceum infected in white leghorn chicken assessed as disease cure from parasite infection at 320 mg/kg, sc administered 72 hrs after infection
Assay type: functional, organism-based
Set-up: dose 320 mg/kg
Details: not given

Structure (SMILES) | Activity
CN(Cc1ccc(Cl)c(Cl)c1)c1ccc2nc(N)nc(N)c2c1 | Active

System: Plasmodium berghei
Test: Antimalarial activity against Plasmodium berghei infected in mouse assessed as increase in mean survival days of host at 20 mg/kg, sc administered 72 hrs after infection relative to control
Assay type: functional
Details: route subcutaneous

Structure (SMILES) | MST [days]
Nc1nc(N)c2c(Cl)c(Sc3cccc(C(F)(F)F)c3)ccc2n1 | 5.9
CC(=O)Nc1ccc(Sc2ccc3nc(N)nc(N)c3c2)cc1 | 6.3
Nc1nc(N)c2cc(Sc3cc(Cl)cc(Cl)c3)ccc2n1 | 4.1
Nc1nc(N)c2cc(Sc3ccc(-c4ccccc4)cc3)ccc2n1 | 7.9

System: Plasmodium berghei
Test: Antimalarial activity against Plasmodium berghei infected in mouse assessed as increase in mean survival days of host at 40 mg/kg, sc administered 72 hrs after infection relative to control
Assay type: functional
Details: route subcutaneous

Structure (SMILES) | MST [days]
Nc1nc(N)c2c(Cl)c(Sc3cccc(C(F)(F)F)c3)ccc2n1 | 14.7
CC(=O)Nc1ccc(Sc2ccc3nc(N)nc(N)c3c2)cc1 | 12.9
Nc1nc(N)c2cc(Sc3cc(Cl)cc(Cl)c3)ccc2n1 | 6.9
Nc1nc(N)c2cc(Sc3ccc(-c4ccccc4)cc3)ccc2n1 | 12.1

System: Enterococcus faecalis
Test: Antibacterial activity against Streptococcus faecalis MGH-2 by gradient plate test
Assay type: functional
Details: not given

Structure (SMILES) | MIC [µg/mL]
Nc1nc(N)c2c(Cl)c(Sc3cccc(C(F)(F)F)c3)ccc2n1 | < 0.25
COc1cc(Cc2cnc(N)nc2N)cc(OC)c1OC [TRIMETHOPRIM] | < 0.25
CC(=O)Nc1ccc(Sc2ccc3nc(N)nc(N)c3c2)cc1 | < 0.25
Nc1nc(N)c2cc(Sc3cc(Cl)cc(Cl)c3)ccc2n1 | < 0.25

System: Mycobacterium tuberculosis
Test: Antibacterial activity against Mycobacterium tuberculosis H37Ra by gradient plate test
Assay type: functional
Details: not given

Structure (SMILES) | MIC [µg/mL]
Nc1nc(N)c2c(Cl)c(Sc3cccc(C(F)(F)F)c3)ccc2n1 | 10 (≈ 27 µM)
COc1cc(Cc2cnc(N)nc2N)cc(OC)c1OC [TRIMETHOPRIM] | > 25
CC(=O)Nc1ccc(Sc2ccc3nc(N)nc(N)c3c2)cc1 | > 25
Nc1nc(N)c2cc(Sc3cc(Cl)cc(Cl)c3)ccc2n1 | 20 (≈ 59.3 µM)

System: Plasmodium berghei
Test: Antimalarial activity against Plasmodium berghei infected in mouse assessed as disease cure from parasite infection at 320 mg/kg, sc administered 72 hrs after infection
Assay type: functional, organism-based
Set-up: dose 320 mg/kg
Details: not given

Structure (SMILES) | Activity
CN(Cc1ccc(Cl)c(Cl)c1)c1ccc2nc(N)nc(N)c2c1 | Active
Nc1nc(N)c2c(Cl)c(Sc3cccc(C(F)(F)F)c3)ccc2n1 | Active
CC(=O)Nc1ccc(Sc2ccc3nc(N)nc(N)c3c2)cc1 | Active
Nc1nc(N)c2cc(Sc3cc(Cl)cc(Cl)c3)ccc2n1 | Active
Nc1nc(N)c2cc(Sc3ccc(-c4ccccc4)cc3)ccc2n1 | Active

System: Plasmodium berghei
Test: Antimalarial activity against Plasmodium berghei infected in mouse assessed as disease cure from parasite infection at 20 mg/kg, sc administered 72 hrs after infection
Assay type: functional, organism-based
Set-up: dose 20 mg/kg
Details: not given

Structure (SMILES) | Activity
CN(Cc1ccc(Cl)c(Cl)c1)c1ccc2nc(N)nc(N)c2c1 | Active

System: Escherichia coli
Test: Antibacterial activity against Escherichia coli Vogel by gradient plate test
Assay type: functional
Details: not given

Structure (SMILES) | MIC [µg/mL]
Nc1nc(N)c2c(Cl)c(Sc3cccc(C(F)(F)F)c3)ccc2n1 | 0.5 (≈ 1.35 µM)
COc1cc(Cc2cnc(N)nc2N)cc(OC)c1OC [TRIMETHOPRIM] | < 0.25
CC(=O)Nc1ccc(Sc2ccc3nc(N)nc(N)c3c2)cc1 | 2.5 (≈ 7.68 µM)
Nc1nc(N)c2cc(Sc3cc(Cl)cc(Cl)c3)ccc2n1 | 2 (≈ 5.93 µM)

System: Plasmodium gallinaceum
Test: Antimalarial activity against sporozoite-induced Plasmodium gallinaceum infected in white leghorn chicken assessed as disease cure from parasite infection at 160 mg/kg, sc administered 72 hrs after infection
Assay type: functional, organism-based
Set-up: dose 160 mg/kg
Details: not given

Structure (SMILES) | Activity
Nc1nc(N)c2c(Cl)c(Sc3cccc(C(F)(F)F)c3)ccc2n1 | Active

System: Plasmodium berghei
Test: Ratio of quinine hydrochloride SD90 to compound SD90 for trophozoite-induced Plasmodium berghei infected in mouse assessed as daily dose required to suppression of 90% parasite infection administered with diet for 6 days
Assay type: functional
Details: not given

Structure (SMILES) | Ratio
COc1cc(Cc2cnc(N)nc2N)cc(OC)c1OC [TRIMETHOPRIM] | 0.6

System: Staphylococcus aureus
Test: Antibacterial activity against Staphylococcus aureus UC-96 by gradient plate test
Assay type: functional
Details: not given

Structure (SMILES) | MIC [µg/mL]
Nc1nc(N)c2c(Cl)c(Sc3cccc(C(F)(F)F)c3)ccc2n1 | < 0.25
COc1cc(Cc2cnc(N)nc2N)cc(OC)c1OC [TRIMETHOPRIM] | < 0.25
CC(=O)Nc1ccc(Sc2ccc3nc(N)nc(N)c3c2)cc1 | < 0.25
Nc1nc(N)c2cc(Sc3cc(Cl)cc(Cl)c3)ccc2n1 | < 0.25

System: Plasmodium gallinaceum
Test: Antimalarial activity against trophozoite-induced Plasmodium gallinaceum infected in white leghorn chicken assessed as disease cure from parasite infection at 160 mg/kg, sc administered 72 hrs after infection
Assay type: functional, organism-based
Set-up: dose 160 mg/kg
Details: not given

Structure (SMILES) | Activity
CN(Cc1ccc(Cl)c(Cl)c1)c1ccc2nc(N)nc(N)c2c1 | Active

System: Shigella sonnei
Test: Antibacterial activity against Shigella sonnei C-10 by gradient plate test
Assay type: functional
Details: not given

Structure (SMILES) | MIC [µg/mL]
Nc1nc(N)c2c(Cl)c(Sc3cccc(C(F)(F)F)c3)ccc2n1 | 2 (≈ 5.39 µM)
COc1cc(Cc2cnc(N)nc2N)cc(OC)c1OC [TRIMETHOPRIM] | < 0.25
CC(=O)Nc1ccc(Sc2ccc3nc(N)nc(N)c3c2)cc1 | > 25
Nc1nc(N)c2cc(Sc3cc(Cl)cc(Cl)c3)ccc2n1 | 20 (≈ 59.3 µM)

System: Plasmodium gallinaceum
Test: Antimalarial activity against sporozoite-induced Plasmodium gallinaceum infected in white leghorn chicken assessed as disease cure from parasite infection at 320 mg/kg, sc administered 72 hrs after infection
Assay type: functional, organism-based
Set-up: dose 320 mg/kg
Details: not given

Structure (SMILES) | Activity
Nc1nc(N)c2c(Cl)c(Sc3cccc(C(F)(F)F)c3)ccc2n1 | Active

System: Plasmodium berghei
Test: Antimalarial activity against Plasmodium berghei infected in mouse assessed as increase in mean survival days of host at 80 mg/kg, sc administered 72 hrs after infection relative to control
Assay type: functional
Details: route subcutaneous

Structure (SMILES) | MST [days]
Nc1nc(N)c2c(Cl)c(Sc3cccc(C(F)(F)F)c3)ccc2n1 | 19.9
CC(=O)Nc1ccc(Sc2ccc3nc(N)nc(N)c3c2)cc1 | 24.9
Nc1nc(N)c2cc(Sc3cc(Cl)cc(Cl)c3)ccc2n1 | 12.7
Nc1nc(N)c2cc(Sc3ccc(-c4ccccc4)cc3)ccc2n1 | 15.6

System: Plasmodium berghei
Test: Antimalarial activity against Plasmodium berghei infected in mouse assessed as disease cure from parasite infection at 160 mg/kg, sc administered 72 hrs after infection
Assay type: functional, organism-based
Set-up: dose 160 mg/kg
Details: not given

Structure (SMILES) | Activity
CN(Cc1ccc(Cl)c(Cl)c1)c1ccc2nc(N)nc(N)c2c1 | Active
Nc1nc(N)c2c(Cl)c(Sc3cccc(C(F)(F)F)c3)ccc2n1 | Active
CC(=O)Nc1ccc(Sc2ccc3nc(N)nc(N)c3c2)cc1 | Active
Nc1nc(N)c2cc(Sc3cc(Cl)cc(Cl)c3)ccc2n1 | Active
Nc1nc(N)c2cc(Sc3ccc(-c4ccccc4)cc3)ccc2n1 | Active

System: Staphylococcus aureus
Test: Antibacterial activity against drug-resistant Staphylococcus aureus S18713 by gradient plate test
Assay type: functional
Details: not given

Structure (SMILES) | MIC [µg/mL]
Nc1nc(N)c2c(Cl)c(Sc3cccc(C(F)(F)F)c3)ccc2n1 | < 0.25
COc1cc(Cc2cnc(N)nc2N)cc(OC)c1OC [TRIMETHOPRIM] | < 0.25
CC(=O)Nc1ccc(Sc2ccc3nc(N)nc(N)c3c2)cc1 | < 0.25
Nc1nc(N)c2cc(Sc3cc(Cl)cc(Cl)c3)ccc2n1 | < 0.25

System: Plasmodium berghei
Test: Antimalarial activity against Plasmodium berghei infected in mouse assessed as increase in mean survival days of host at 5 mg/kg, sc administered 72 hrs after infection relative to control
Assay type: functional
Details: route subcutaneous

Structure (SMILES) | MST [days]
Nc1nc(N)c2cc(Sc3ccc(-c4ccccc4)cc3)ccc2n1 | 1.1

System: Plasmodium berghei
Test: Antimalarial activity against Plasmodium berghei infected in mouse assessed as increase in mean survival days of host at 10 mg/kg, sc administered 72 hrs after infection relative to control
Assay type: functional
Details: route subcutaneous

Structure (SMILES) | MST [days]
CC(=O)Nc1ccc(Sc2ccc3nc(N)nc(N)c3c2)cc1 | 3.3
Nc1nc(N)c2cc(Sc3cc(Cl)cc(Cl)c3)ccc2n1 | 1.1
Nc1nc(N)c2cc(Sc3ccc(-c4ccccc4)cc3)ccc2n1 | 6.5

System: Plasmodium berghei
Test: Antimalarial activity against Plasmodium berghei infected in mouse assessed as increase in mean survival days of host at 160 mg/kg, sc administered 72 hrs after infection relative to control
Assay type: functional
Details: route subcutaneous

Structure (SMILES) | MST [days]
Nc1nc(N)c2c(Cl)c(Sc3cccc(C(F)(F)F)c3)ccc2n1 | 24.9
Nc1nc(N)c2cc(Sc3cc(Cl)cc(Cl)c3)ccc2n1 | 17.9
